Test results from patent US11358965B2, “EGFR dimer disruptors and use of the same” (THE REGENTS OF THE UNIVERSITY OF MICHIGAN, priority 2018, dated 2022).
Where a name gives a salt, the structure may show the parent alone.

Tests used:
RKO cells = assay: Clonogenic IC50, RKO; type: cell-based; settings: Homo sapiens
cells = assay: Cell Titer Blue % cell viable (24 hrs); type: cell-based; settings: 24 h; for viability at 30 µM: Conc 30 μM; for viability at 15 µM: Conc 15 μM; for viability at 7.5 µM: Conc 7.5 μM
Protocol: The viability of cells upon treatment was assessed by CellTiter-Blue® reagent following the manufacturer's protocol in RKO, UM10B, UM1, MCR5, and UMCC92 cells. Briefly, 10,000 cells were plated in 96-well plate in quadruplets. One day after seeding, cells were treated with a range of concentrations (0.1 to 30 micromolar). […] Only the viable cells convert the redox dye (reszurin) into a fluorescent product (resofurin). The emission of fluorescence (excitation 560 nm) was measured at […]. The IC50 value was calculated as the mean concentration of compounds required to inhibit cell proliferation as measured by the fluorescence at […] by 50 percent compared to the vehicle-treated controls.

UM1 cells = assay: Clonogenic IC50, UM1; type: cell-based
UMCC92 cells = assay: Clonogenic IC50, UMCC92; type: cell-based
MCR5 cells = assay: Clonogenic IC50, MCR5; type: cell-based
Protocol: It was determined if the response to Compound 8C correlates with inhibition of EGF-induced dimerization and degradation of EGFR. For this, PC9-AZR cells were treated for 1 hour with 1 μM Compound 8C and an additional 30 minutes with EGF (30 ng/ml) and 30 minutes with disuccinimidyl suberate (DSS, 150 μM) to cross-link interacting proteins. Lysates were prepared and immunoblotted with anti-EGFR antibodies.
The viability of cells upon treatment was assessed by CellTiter-Blue® reagent following the manufacturer's protocol in RKO, UM10B, UM1, MCR5, and UMCC92 cells. Briefly, 10,000 cells were plated in 96-well plate in quadruplets. One day after seeding, cells were treated with a range of concentrations (0.1 to 30 micromolar). 3-days post-treatment, cells were incubated with the CellTiter-Blue® reagent for 4 hr. Only the viable cells convert the redox dye (reszurin) into a fluorescent product (resofurin). The emission of fluorescence (excitation 560 nm) was measured at […]. The IC50 value was calculated as the mean concentration of compounds required to inhibit cell proliferation as measured by the fluorescence at […] by 50 percent compared to the vehicle-treated controls.

UM10B cells = assay: Clonogenic IC50, UM10B; type: cell-based
[1] = tested on: Ba/F3-AZR cells (L858R+T790M+C797S-EGFR); assay: Osimertinib resistant Ba/F3-AZR ascites tumor model; type: in vivo, nude mice; settings: mouse, in vivo, 30 mg/kg

| Compound | IC50 (RKO cells) | viability at 30 µM (cells) | IC50 (UM1 cells) | viability at 15 µM (cells) | IC50 (UMCC92 cells) | viability at 7.5 µM (cells) | IC50 (MCR5 cells; MCR5, MCR5) | IC50 (UM10B cells) | IC50 (MCR5 cells; MCR5) | survival [1] |
| --- | --- | --- | --- | --- | --- | --- | --- | --- | --- | --- |
| COc1ccc(C2=NC3(CCN(C(=O)OC(C)(C)C)CC3)N(CC(=O)Nc3ccc(OC)c(Cl)c3)C2=O)cc1 [Compound 3, tert-Butyl 4-(2-((3-chloro-4-methoxyphenyl)amino)-2-oxoethyl)-2-(4-methoxyphenyl)-3-oxo-1,4,8-triazaspiro[4.5]dec-1-ene-8-carboxylate] | 9.8 µM | 70% | 7.8 µM |  |  |  |  |  |  |  |
| COc1ccc(C2=NC3(CCNCC3)N(CC(=O)Nc3ccc(OC)c(Cl)c3)C2=O)cc1 [Compound 4, N-(3-chloro-4-methoxyphenyl)-2-(3-(4-methoxyphenyl)-2-oxo-1,4,8-triazaspiro[4.5]dec-3-en-1-yl)acetamide hydrochloride] | 7.6 µM |  | 1 µM | 61% |  |  |  |  |  |  |
| COc1ccc(C2=NC3(CCN(C)CC3)N(CC(=O)Nc3ccc(OC)c(Cl)c3)C2=O)cc1 [Compound 5, N-(3-chloro-4-methoxyphenyl)-2-(3-(4-methoxyphenyl)-8-methyl-2-oxo-1,4,8-triazaspiro[4.5]dec-3-en-1-yl)acetamide] | 11.6 µM |  | 0.9 µM | 60% | 34 µM |  |  |  |  |  |
| COc1ccc(NC(=O)CSC2=NC3(CCN(C)CC3)N=C2c2ccc(Br)cc2)cn1 [Compound 8A, 2-((3-(4-bromophenyl)-8-methyl-1,4,8-triazaspiro[4.5]deca-1,3-dien-2-yl)thio)-N-(6-methoxypyridin-3-yl)acetamide] | 8.8 µM | 58% | 1 µM |  |  |  |  |  |  |  |
| CN1CCC2(CC1)N=C(SCC(=O)Nc1ccc(Cl)nc1)C(c1ccc(Br)cc1)=N2 [Compound 8B, 2-((3-(4-bromophenyl)-8-methyl-1,4,8-triazaspiro[4.5]deca-1,3-dien-2-yl)thio)-N-(6-chloropyridin-3-yl)acetamide] | 5.3 µM |  | 0.8 µM | 50% |  |  |  |  |  |  |
| CN1CCC2(CC1)N=C(SCC(=O)Nc1ccncc1)C(c1ccc(Br)cc1)=N2 [Compound 8D, 2-((3-(4-bromophenyl)-8-methyl-1,4,8-triazaspiro[4.5]deca-1,3-dien-2-yl)thio)-N-(pyridin-4-yl)acetamide] | 7.3 µM |  | 0.8 µM |  |  | 64% |  |  |  |  |
| CN1CCC2(CC1)N=C(SCC(=O)NC1CCCCC1)C(c1ccc(Br)cc1)=N2 [Compound 8E, 2-((3-(4-bromophenyl)-8-methyl-1,4,8-triazaspiro[4.5]deca-1,3-dien-2-yl)thio)-N-cyclohexylacetamide] | 14.1 µM | 84% | 1.9 µM |  |  |  |  |  |  |  |
| CN1CCC2(CC1)N=C(SCC(=O)NC1CCCC1)C(c1ccc(Br)cc1)=N2 [Compound 8F, 2-((3-(4-bromophenyl)-8-methyl-1,4,8-triazaspiro[4.5]deca-1,3-dien-2-yl)thio)-N-cyclopentylacetamide] | 17.4 µM | 62% | 1 µM |  |  |  |  |  |  |  |
| CN1CCC2(CC1)N=C(SCC(=O)NCc1ccccc1)C(c1ccc(Br)cc1)=N2 [Compound 8G, N-benzyl-2-((3-(4-bromophenyl)-8-methyl-1,4,8-triazaspiro[4.5]deca-1,3-dien-2-yl)thio)acetamide] | 8.5 µM | 40% | 1.6 µM |  |  |  |  |  |  |  |
| COc1ccc(C2=NC3(CCN(C(=O)OC(C)(C)C)CC3)N=C2SCC(=O)Nc2ccc(OC)nc2)cc1 [Compound 10, tert-Butyl 2-(4-methoxyphenyl)-3-((2-((6-methoxypyridin-3-yl)amino)-2-oxoethyl)thio)-1,4,8-triazaspiro[4.5]deca-1,3-diene-8-carboxylate] | 21.8 µM | 81% | 1.7 µM |  |  |  |  |  |  |  |
| COc1ccc(C2=NC3(CCNCC3)N=C2SCC(=O)Nc2ccc(OC)nc2)cc1 [Compound 11, 2-((3-(4-methoxyphenyl)-1,4,8-triazaspiro[4.5]deca-1,3-dien-2-yl)thio)-N-(6-methoxypyridin-3-yl)acetamide hydrochloride] | 26 µM | 52% | 1.3 µM |  |  |  |  |  |  |  |
| COc1ccc(C2=NC3(CCN(C)CC3)N=C2SCC(=O)Nc2ccc(OC)nc2)cc1 [Compound 12, 2-((3-(4-methoxyphenyl)-8-methyl-1,4,8-triazaspiro[4.5]deca-1,3-dien-2-yl)thio)-N-(6-methoxypyridin-3-yl)acetamide] | 34 µM | 78% | 1.2 µM |  |  |  |  |  |  |  |
| COc1ccc(NC(=O)CN2C(=O)C(c3ccc(C(C)(C)C)cc3)=NC2(C)C)cc1Cl [Compound 15] | 50.7 µM | 119% |  |  |  |  | 37 µM | 17.2 µM |  |  |
| COc1ccc(NC(=O)CN2C(=O)C(c3ccc(F)cc3)=NC2(C)C)cc1Cl [Compound 16] | 43.9 µM | 122% |  |  |  |  |  | 38 µM | 1320 µM |  |
| CC1(C)N=C(SCC(=O)Nc2ccc(Cl)c(Cl)c2)C(c2ccc(Cl)c(Cl)c2)=N1 [Compound 18] | 6.7 µM | 48% |  |  |  |  | 25.9 µM | 2.5 µM |  |  |
| COc1cc(NC(=O)CSC2=NC3(CCN(C)CC3)N=C2c2ccc(C)cc2)ccc1Cl [Compound 19] | 3.1 µM |  |  |  |  | 68% | 4.1 µM | 2.6 µM |  |  |
| COc1ccc(C2=NC3(CCN(C)CC3)N=C2SCC(=O)Nc2ccc(OC)c(Cl)c2)cc1 [Compound 20] | 1.8 µM |  |  | 54% |  |  | 2.4 µM | 4 µM |  |  |
| COc1ccc(NC(=O)CSC2=NC3(CCN(C)CC3)N=C2c2ccc(F)cc2)cc1Cl [Compound 21] | 85 µM |  |  | 73% |  |  | 0.3 µM | 4.3 µM |  |  |
| COc1ccc(NC(=O)CSC2=NC3(CCN(C)CC3)N=C2c2ccc(C(C)(C)C)cc2)cc1Cl [Compound 22] | 0.8 µM |  |  |  | 0.2 µM | 55% | 2.3 µM | 0.3 µM |  |  |
| Cc1ccc(C2=NC3(CCN(C)CC3)N=C2SCC(=O)Nc2ccc3c(c2)OCCO3)cc1 [Compound 23] | 2.2 µM | 103% |  |  |  |  | 5.4 µM | 5.3 µM |  |  |
| Cc1ccc(C2=NC3(CCN(C)CC3)N=C2SCC(=O)Nc2ccc3c(c2)OCO3)cc1 [Compound 24] | 5.4 µM | 72% |  |  |  |  | 7.6 µM | 4.3 µM |  |  |
| Cc1ccc(C2=NC3(CCN(C)CC3)N=C2SCC(=O)Nc2ccc(F)c(F)c2)cc1 [Compound 25] | 3.7 µM | 78% |  |  | 2.1 µM |  | 69.3 µM | 2.6 µM |  |  |
| CN1CCC2(CC1)N=C(SCC(=O)Nc1ccc(F)c(F)c1)C(c1ccc(Cl)cc1)=N2 [Compound 26] | 2.6 µM | 88% |  |  |  |  | 1.3 µM | 1.1 µM |  |  |
| CN1CCC2(CC1)N=C(SCC(=O)Nc1ccc(F)c(F)c1)C(c1ccc(F)cc1)=N2 [Compound 27] | 19 µM | 76% |  |  |  |  | 4.1 µM | 8.8 µM |  |  |
| CN1CCC2(CC1)N=C(SCC(=O)Nc1ccc(F)c(F)c1)C(c1ccc(C(C)(C)C)cc1)=N2 [Compound 28] | 6.5 µM |  |  | 15% |  |  | 1.3 µM | 1 µM |  |  |
| CN1CCC2(CC1)N=C(SCC(=O)Nc1ccc(F)c(F)c1)C(c1ccc(Br)cc1)=N2 [Compound 29] | 1.4 µM | 89% |  |  |  |  | 3.3 µM | 0.7 µM |  |  |
| Cc1ccc(C2=NC3(CCCCC3)N=C2SCC(=O)Nc2ccc(F)c(Cl)c2)cc1 [Compound 32] | 8 µM | 104% |  |  |  |  | 15 µM | 4 µM |  |  |
| C=CC(=O)Nc1cc(Nc2nccc(-c3cn(C)c4ccccc34)n2)c(OC)cc1N(C)CCN(C)C [osimertinib, reference compound] |  |  |  |  |  |  |  |  |  | no difference |
